The text below walks through data of patent US8541588B2, “Sulfonamide derivatives” (Pfizer Limited, priority 2009, dated 2013).

SMILES strings stand for the structures.

T1 sequence (Q15858 whole entry): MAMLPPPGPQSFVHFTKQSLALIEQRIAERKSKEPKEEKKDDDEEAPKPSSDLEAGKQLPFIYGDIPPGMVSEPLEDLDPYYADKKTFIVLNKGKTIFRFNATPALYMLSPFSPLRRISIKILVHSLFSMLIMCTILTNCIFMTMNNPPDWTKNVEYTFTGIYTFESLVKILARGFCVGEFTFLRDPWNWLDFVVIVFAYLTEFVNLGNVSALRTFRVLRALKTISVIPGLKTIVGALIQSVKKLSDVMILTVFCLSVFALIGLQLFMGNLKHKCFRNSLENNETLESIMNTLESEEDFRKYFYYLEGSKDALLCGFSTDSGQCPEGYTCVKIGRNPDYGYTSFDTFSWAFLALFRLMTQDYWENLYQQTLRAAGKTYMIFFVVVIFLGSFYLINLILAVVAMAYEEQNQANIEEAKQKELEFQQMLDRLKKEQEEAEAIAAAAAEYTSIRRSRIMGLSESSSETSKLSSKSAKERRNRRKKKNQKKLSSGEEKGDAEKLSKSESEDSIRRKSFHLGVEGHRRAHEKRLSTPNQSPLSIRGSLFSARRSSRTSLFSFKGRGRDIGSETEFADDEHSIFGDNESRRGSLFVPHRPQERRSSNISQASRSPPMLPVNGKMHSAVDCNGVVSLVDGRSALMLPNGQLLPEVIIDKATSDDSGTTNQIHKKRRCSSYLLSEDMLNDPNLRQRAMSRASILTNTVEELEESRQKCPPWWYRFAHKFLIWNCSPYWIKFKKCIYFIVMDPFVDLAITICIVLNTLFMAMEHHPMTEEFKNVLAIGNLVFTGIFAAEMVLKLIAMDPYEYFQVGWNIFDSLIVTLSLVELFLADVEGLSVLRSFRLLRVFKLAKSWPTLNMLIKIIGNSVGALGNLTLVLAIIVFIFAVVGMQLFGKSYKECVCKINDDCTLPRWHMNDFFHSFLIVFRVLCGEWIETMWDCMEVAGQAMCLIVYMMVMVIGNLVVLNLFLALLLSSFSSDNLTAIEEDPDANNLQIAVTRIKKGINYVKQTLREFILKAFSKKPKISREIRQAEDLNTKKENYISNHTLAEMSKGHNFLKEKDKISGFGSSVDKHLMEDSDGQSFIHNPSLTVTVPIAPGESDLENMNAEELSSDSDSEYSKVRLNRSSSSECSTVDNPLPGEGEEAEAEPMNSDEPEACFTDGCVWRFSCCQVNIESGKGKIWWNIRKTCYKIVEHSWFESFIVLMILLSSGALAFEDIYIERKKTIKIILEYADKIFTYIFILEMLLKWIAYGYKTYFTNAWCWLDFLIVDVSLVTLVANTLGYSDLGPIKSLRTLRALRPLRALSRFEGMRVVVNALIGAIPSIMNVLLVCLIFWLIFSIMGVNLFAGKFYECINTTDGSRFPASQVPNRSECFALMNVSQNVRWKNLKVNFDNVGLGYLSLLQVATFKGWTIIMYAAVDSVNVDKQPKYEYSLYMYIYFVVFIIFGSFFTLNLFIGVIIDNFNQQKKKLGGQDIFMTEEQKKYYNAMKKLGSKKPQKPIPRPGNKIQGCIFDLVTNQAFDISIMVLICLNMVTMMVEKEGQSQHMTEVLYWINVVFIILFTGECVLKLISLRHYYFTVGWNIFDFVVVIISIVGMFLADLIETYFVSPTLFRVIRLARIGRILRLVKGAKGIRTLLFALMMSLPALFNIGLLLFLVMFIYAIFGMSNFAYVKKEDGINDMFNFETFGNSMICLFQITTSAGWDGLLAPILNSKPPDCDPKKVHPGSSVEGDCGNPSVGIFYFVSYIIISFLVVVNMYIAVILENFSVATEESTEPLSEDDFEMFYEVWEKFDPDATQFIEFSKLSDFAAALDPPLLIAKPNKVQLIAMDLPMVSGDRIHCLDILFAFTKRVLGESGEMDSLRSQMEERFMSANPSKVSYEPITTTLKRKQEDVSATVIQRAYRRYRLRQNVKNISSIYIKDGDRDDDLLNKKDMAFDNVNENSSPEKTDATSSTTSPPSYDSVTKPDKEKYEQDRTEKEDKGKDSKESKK

This experiment addresses T1, Nav1.7 (or SCN9A) channel; HEK cells stably transfected with hSCN9A (Homo sapiens, UniProt Q15858).
T1 construct: expressed in transfected cells
Kind of experiment: Nav1.7 block, PatchXpress 7000 automated whole-cell voltage clamp, estimated IC50 (EIC50). Particulars: estimated IC50; hSCN9A HEK cells, PatchXpress platform; Examples 283-814. It is filed as cell-based.
As for `O=S(=O)(Nc1ncc(F)s1)c1cc(F)c(Oc2ccc(Cl)cc2-c2cn[nH]c2)cc1F` [Example 683, 4-[4-chloro-2-(1H-pyrazol-4-yl)phenoxy]-2,5-difluoro-N-(5-fluoro-1,3-thiazol-2-yl)benzenesulfonamide], the concentration for half-maximal inhibition (IC50) is 22 nM.

For `Cn1nc(C(F)(F)F)cc1-c1ccc(Oc2ccc(S(=O)(=O)Nc3nccs3)cc2F)cc1` [Example 684, 3-fluoro-4-{4-[1-methyl-3-(trifluoromethyl)-1H-pyrazol-5-yl]phenoxy}-N-1,3-thiazol-2-ylbenzenesulfonamide], the IC50 was 1000 nM. In the case of `O=S(=O)(Nc1nccs1)c1ccc(Oc2ccc(Cl)cc2-c2cn[nH]c2)c(F)c1` [Example 685, 4-[4-chloro-2-(1H-pyrazol-4-yl)phenoxy]-3-fluoro-N-1,3-thiazol-2-ylbenzenesulfonamide], the IC50 was 130 nM. Take `O=S(=O)(Nc1nccs1)c1ccc(Oc2ccc(F)cc2-c2cn[nH]c2)c(F)c1` [Example 686, 3-fluoro-4-[4-fluoro-2-(1H-pyrazol-4-yl)phenoxy]-N-1,3-thiazol-2-ylbenzenesulfonamide]: the IC50 was 330 nM. Then `O=S(=O)(Nc1nccs1)c1ccc(Oc2ccc(OC(F)(F)F)cc2-c2cn[nH]c2)c(F)c1` [Example 687, 3-fluoro-4-[2-(1H-pyrazol-4-yl)-4-(trifluoromethoxy)phenoxy]-N-1,3-thiazol-2-ylbenzenesulfonamide], with 80 nM; and `COc1cc(-c2cc(F)ccc2Oc2cc(F)c(S(=O)(=O)Nc3cscn3)cc2Cl)n(C)n1` [Example 688, 5-Chloro-2-fluoro-4-[4-fluoro-2-(3-methoxy-1-methyl-1H-pyrazol-5-yl)-phenoxy]-N-1,3-thiazol-4-yl-benzenesulfonamide], with 5100 nM; and `O=S(=O)(Nc1cscn1)c1cc(Cl)c(Oc2ccc(C(F)(F)F)cc2-c2cncc(CO)c2)cc1F` [Example 689, 5-Chloro-2-fluoro-4-{2-[5-(hydroxymethyl)pyridin-3-yl]-4-(trifluoromethyl)phenoxy}-N-1,3-thiazol-4-ylbenzenesulfonamide], with more than 300 nM.

With `N#Cc1cc(S(=O)(=O)Nc2nccs2)ccc1Oc1ccc(Cl)cc1C1CNC1` [Example 690, 4-(2-azetidin-3-yl-4-chlorophenoxy)-3-cyano-N-1,3-thiazol-2-ylbenzenesulfonamide], the 50% inhibitory concentration (IC50) was 110 nM. Take `Cc1ccccc1-c1cc(Cl)ccc1Oc1ccc(S(=O)(=O)Nc2nccs2)cc1C#N` [Example 692, 4-[(5-chloro-2′-methylbiphenyl-2-yl)oxy]-3-cyano-N-1,3-thiazol-2-ylbenzenesulfonamide]: the half-inhibitory concentration (IC50) was 110 nM. Then `Cn1cc(-c2cc(Cl)ccc2Oc2ccc(S(=O)(=O)Nc3nccs3)cc2C#N)cn1` [Example 693, 4-[4-chloro-2-(1-methyl-1H-pyrazol-4-yl)phenoxy]-3-cyano-N-1,3-thiazol-2-ylbenzenesulfonamide], with 81 nM; and `N#Cc1cc(S(=O)(=O)Nc2nccs2)ccc1Oc1ccc(Cl)cc1-c1cnn[nH]1` [Example 694, 4-[4-chloro-2-(1H-1,2,3-triazol-5-yl)phenoxy]-3-cyano-N-1,3-thiazol-2-ylbenzenesulfonamide], with 480 nM. In the case of `CCn1nc(C(F)(F)F)c(Cl)c1-c1ccc(Oc2ccc(S(=O)(=O)Nc3nccs3)cc2C#N)cc1` [Example 695, 4-{4-[4-chloro-1-ethyl-3-(trifluoromethyl)-1H-pyrazol-5-yl]phenoxy}-3-cyano-N-1,3-thiazol-2-ylbenzenesulfonamide], the IC50 was 340 nM. The result for `N#Cc1cc(S(=O)(=O)Nc2nccs2)ccc1Oc1ccc(I)cc1-c1cn[nH]c1` [Example 696, 3-cyano-4-[4-iodo-2-(1H-pyrazol-4-yl)phenoxy]-N-1,3-thiazol-2-ylbenzenesulfonamide] reads 78 nM; that for `N#Cc1cc(S(=O)(=O)Nc2nccs2)ccc1Oc1ccc(Br)cc1-c1cn[nH]c1` [Example 697, 4-[4-Bromo-2-(1H-pyrazol-4-yl)phenoxy]-3-cyano-N-1,3-thiazol-2-ylbenzenesulfonamide], 1.4 nM. As for `Cc1ncsc1-c1cc(Cl)ccc1Oc1ccc(S(=O)(=O)Nc2nccs2)cc1C#N` [Example 698, 4-[4-chloro-2-(4-methyl-1,3-thiazol-5-yl)phenoxy]-3-cyano-N-1,3-thiazol-2-ylbenzenesulfonamide], the IC50 was 96 nM.

In the case of `Cn1nccc1-c1ccc(C(F)(F)F)cc1Oc1ccc(S(=O)(=O)Nc2nccs2)cc1C#N` [Example 699, 3-cyano-4-[2-(1-methyl-1H-pyrazol-5-yl)-5-(trifluoromethyl)phenoxy]-N-1,3-thiazol-2-ylbenzenesulfonamide], the IC50 is 140 nM. Then `N#Cc1cc(S(=O)(=O)Nc2nccs2)ccc1Oc1ccc(Cl)cc1-c1cccnc1` [Example 700, 4-(4-chloro-2-pyridin-3-ylphenoxy)-3-cyano-N-1,3-thiazol-2-ylbenzenesulfonamide], with 57 nM. Then `N#Cc1cc(S(=O)(=O)Nc2nccs2)ccc1Oc1ccc(Cl)cc1-c1cncnc1` [Example 701, 4-(4-chloro-2-pyrimidin-5-ylphenoxy)-3-cyano-N-1,3-thiazol-2-ylbenzenesulfonamide], with 300 nM. For the compound `COc1cc(-c2ccccc2Oc2ccc(S(=O)(=O)Nc3nccs3)cc2C#N)ccc1C#N` [Example 703], the half-maximal inhibitory concentration (IC50) was 190 nM. `N#Cc1cc(S(=O)(=O)Nc2nccs2)ccc1Oc1ccc(OC(F)(F)F)cc1-c1cn[nH]c1` [Example 704, 3-cyano-4-[2-(1H-pyrazol-4-yl)-4-(trifluoromethoxy)phenoxy]-N-1,3-thiazol-2-ylbenzenesulfonamide]: the IC50 is 11 nM. On to `Cn1nccc1-c1cc(Br)ccc1Oc1ccc(S(=O)(=O)Nc2nccs2)cc1C#N` [Example 705, 4-[4-bromo-2-(1-methyl-1H-pyrazol-5-yl)phenoxy]-3-cyano-N-1,3-thiazol-2-ylbenzenesulfonamide], for which the IC50 was 15 nM. The result for `N#Cc1cc(S(=O)(=O)Nc2nccs2)ccc1Oc1ccc(Cl)cc1-c1c[nH]nc1N` [Example 706, 4-[2-(3-amino-1H-pyrazol-4-yl)-4-chlorophenoxy]-3-cyano-N-1,3-thiazol-2-ylbenzenesulfonamide] reads 26 nM; that for `N#Cc1cc(S(=O)(=O)Nc2nccs2)ccc1Oc1ccccc1-c1cn[nH]c1N` [Example 707, 4-[2-(5-amino-1H-pyrazol-4-yl)phenoxy]-3-cyano-N-1,3-thiazol-2-ylbenzenesulfonamide], 120 nM; that for `N#Cc1cc(S(=O)(=O)Nc2nccs2)ccc1Oc1ccc(-n2nc(C(F)F)cc2CO)cc1` [Example 708, 3-cyano-4-{4-[3-(difluoromethyl)-5-(hydroxymethyl)-1H-pyrazol-1-yl]phenoxy}-N-1,3-thiazol-2-ylbenzenesulfonamide], 400 nM. Then `N#Cc1cc(S(=O)(=O)Nc2nccs2)ccc1Oc1ccc(Cl)cc1-c1ccn[nH]1` [Example 709, 4-[4-chloro-2-(1H-pyrazol-5-yl)phenoxy]-3-cyano-N-1,3-thiazol-2-ylbenzenesulfonamide], with 14 nM; and `N#Cc1cc(S(=O)(=O)Nc2nccs2)ccc1Oc1ccc(Cl)cc1-c1[nH]ncc1F` [Example 710, 4-[4-chloro-2-(4-fluoro-1H-pyrazol-5-yl)phenoxy]-3-cyano-N-1,3-thiazol-2-ylbenzenesulfonamide], with 88 nM; and `N#Cc1cc(S(=O)(=O)Nc2nccs2)ccc1Oc1cc(Cl)ccc1-c1ccn[nH]1` [Example 711, 4-[5-chloro-2-(1H-pyrazol-5-yl)phenoxy]-3-cyano-N-1,3-thiazol-2-ylbenzenesulfonamide], with 40 nM. The result for `Cc1nc(NS(=O)(=O)c2ccc(Oc3ccccc3-c3ccccc3)c(C#N)c2)sc1F` [Example 712, 4-(biphenyl-2-yloxy)-3-cyano-N-(5-fluoro-4-methyl-1,3-thiazol-2-yl)benzenesulfonamide] reads 1200 nM; that for `N#Cc1cc(S(=O)(=O)Nc2ncc(F)s2)ccc1Oc1ccc(I)cc1-c1ccn[nH]1` [Example 713, 3-Cyano-N-(5-fluoro-1,3-thiazol-2-yl)-4-[4-iodo-2-(1H-pyrazol-5-yl)phenoxy]benzenesulfonamide], 2.4 nM.

For the compound `N#Cc1cc(S(=O)(=O)Nc2ncc(F)s2)ccc1Oc1ccc(CCCO)cc1-c1cn[nH]c1` [Example 714, 3-cyano-N-(5-fluoro-1,3-thiazol-2-yl)-4-[4-(3-hydroxypropyl)-2-(1H-pyrazol-4-yl)phenoxy]benzenesulfonamide], the IC50 was 190 nM.

`Cn1nccc1-c1cc(CCCO)ccc1Oc1ccc(S(=O)(=O)Nc2ncc(F)s2)cc1C#N` [Example 715, 3-cyano-N-(5-fluoro-1,3-thiazol-2-yl)-4-[4-(3-hydroxypropyl)-2-(1-methyl-1H-pyrazol-5-yl)phenoxy]benzenesulfonamide]: the IC50 was 210 nM. As to `Cn1nccc1-c1cc(CCO)ccc1Oc1ccc(S(=O)(=O)Nc2ncc(F)s2)cc1C#N` [Example 716, 3-cyano-N-(5-fluoro-1,3-thiazol-2-yl)-4-[4-(2-hydroxyethyl)-2-(1-methyl-1H-pyrazol-5-yl)phenoxy]benzenesulfonamide], the half-inhibitory concentration (IC50) was 430 nM.

Take `Cn1ncnc1-c1cc(Cl)ccc1Oc1ccc(S(=O)(=O)Nc2ncc(F)s2)cc1C#N` [Example 717, 4-[4-chloro-2-(1-methyl-1H-1,2,4-triazol-5-yl)phenoxy]-3-cyano-N-(5-fluoro-1,3-thiazol-2-yl)benzenesulfonamide]: the IC50 is more than 300 nM. On to `Cn1nccc1-c1cc(C(F)(F)F)ccc1Oc1ccc(S(=O)(=O)Nc2ncc(F)s2)cc1C#N` [Example 718, 3-cyano-N-(5-fluoro-1,3-thiazol-2-yl)-4-[2-(1-methyl-1H-pyrazol-5-yl)-4-(trifluoromethyl)phenoxy]benzenesulfonamide], for which the IC50 was 33 nM.

Take `Cn1nc(C(F)(F)F)cc1-c1ccc(Oc2ccc(S(=O)(=O)Nc3ncc(F)s3)cc2C#N)cc1F` [Example 719, 3-cyano-4-{3-fluoro-4-[1-methyl-3-(trifluoromethyl)-1H-pyrazol-5-yl]phenoxy}-N-(5-fluoro-1,3-thiazol-2-yl)benzenesulfonamide]: the IC50 is 160 nM.

A word on the IC50: it is the concentration needed to halve the response being measured.
